Legend:
[1] = tested on: healthy elderly subjects (scopolamine challenge); test: Saccadic eye movements in scopolamine challenge; assay type: in vivo, human; conditions: for Saccadic inaccuracy / Saccadic reaction time: vs placebo (95% CI), scopolamine 0.3 mg i.v.
[2] = tested on: healthy elderly subjects (scopolamine challenge); test: N-back test in scopolamine challenge; assay type: in vivo, human; conditions: for N-back, 0-back accuracy / N-back, 0-back reaction time / N-back, 1-back accuracy / N-back, 2-back accuracy / N-back, 2-back reaction time: vs placebo (95% CI), scopolamine 0.3 mg i.v.
[3] = tested on: healthy elderly subjects (scopolamine challenge); test: Adaptive tracking; assay type: in vivo, human; conditions: for Adaptive tracking: vs placebo (95% CI), scopolamine 0.3 mg i.v.
[4] = tested on: healthy elderly subjects (scopolamine challenge); test: Safety assessment: adverse events, vital signs, ECG, laboratory; assay type: in vivo, human; conditions: scopolamine 0.3 mg i.v.
healthy volunteers [5] = conditions: single oral doses; cited from earlier work
[6] = tested on: patients with mild-to-moderate Alzheimer's disease; conditions: cited from earlier work
Plasma pharmacokinetics = conditions: noncompartmental analysis
[7] = tested on: healthy elderly subjects (scopolamine challenge); test: Simple reaction time task in scopolamine challenge; assay type: in vivo, human; conditions: scopolamine alone 0.3 mg i.v.
[8] = tested on: healthy elderly subjects (scopolamine challenge); test: Body sway meter; assay type: in vivo, human; conditions: scopolamine alone 0.3 mg i.v.
healthy volunteers [9] = conditions: 0.5 mg intravenously; healthy young volunteers; cited from earlier work
[10] = tested on: healthy elderly subjects (scopolamine challenge); test: Pharmaco-electroencephalography in scopolamine challenge; assay type: in vivo, human; conditions: scopolamine alone 0.3 mg i.v.
healthy subjects = conditions: scopolamine alone, previous study; cited from earlier work
[11] = DPZ 2.5 mg + EVP-6124 placebo, N 11
[12] = DPZ 5.0 mg + EVP-6124 placebo, N 10
[13] = DPZ placebo + EVP-6124 0.3 mg, N 12
[14] = DPZ placebo + EVP-6124 1 mg, N 11
[15] = DPZ placebo + EVP-6124 2 mg, N 12
[16] = DPZ placebo + EVP-6124 4 mg, N 12

SMILES: COc1cc2c(cc1OC)C(=O)C(CC1CCN(Cc3ccccc3)CC1)C2 (centres unmarked) [DPZ, donepezil, reference compound]
- Saccadic inaccuracy ([1]; DPZ 2.5 mg + EVP-6124 placebo): −1.4 (−2.7, −0.1) P = .0311%
- Saccadic reaction time ([1]; DPZ 2.5 mg + EVP-6124 placebo): −4 (−20, 11) P = .5539 ms
- Saccadic inaccuracy ([1]; DPZ 5 mg + EVP-placebo): 0.0 (−0.9, 1.0) P = .9433%
- Saccadic reaction time ([1]; DPZ 5 mg + EVP-placebo): −11 (−20, −2) P = .0190 ms
- N-back, 0-back accuracy ([2]; DPZ 2.5 mg + EVP-6124 placebo): 0.03 (−0.05, 0.11) P = .4512%
- N-back, 0-back reaction time ([2]; DPZ 2.5 mg + EVP-6124 placebo): −24 (−48, 1) P = .0615 ms
- N-back, 1-back accuracy ([2]; DPZ 2.5 mg + EVP-6124 placebo): −0.00 (−0.12, 0.11) P = .9598%
- N-back, 2-back accuracy ([2]; DPZ 2.5 mg + EVP-6124 placebo): 0.04 (−0.08, 0.17) P = .5034%
- N-back, 2-back reaction time ([2]; DPZ 2.5 mg + EVP-6124 placebo): −27 (−70, 16) P = .2115 ms
- N-back, 0-back accuracy ([2]; DPZ 5 mg + EVP-placebo): 0.04 (−0.02, 0.10) P = .1614%
- N-back, 0-back reaction time ([2]; DPZ 5 mg + EVP-placebo): −18 (−36, −1) P = .0386 ms
- N-back, 1-back accuracy ([2]; DPZ 5 mg + EVP-placebo): 0.03 (−0.05, 0.11) P = .4286%
- N-back, 2-back accuracy ([2]; DPZ 5 mg + EVP-placebo): 0.02 (−0.08, 0.11) P = .7469%
- N-back, 2-back reaction time ([2]; DPZ 5 mg + EVP-placebo): 35 (−1, 70) P = .0541 ms
- Adaptive tracking ([3]; DPZ 2.5 mg + EVP-6124 placebo): 1.49 (0.20, 2.77) P = .0247%
- Adaptive tracking ([3]; DPZ 5 mg + EVP-placebo): 0.72 (−0.76, 2.20) P = .3297%
- Headache, treatment-related adverse event, subjects n (%) [4, 11]: 1 (9.1%)
- Somnolence, treatment-related adverse event, subjects n (%) [4, 11]: 7 (63.6%)
- Disturbance in attention, treatment-related adverse event, subjects n (%) [4, 12]: 1 (10.0%)
- Dizziness, treatment-related adverse event, subjects n (%) [4, 12]: 6 (60.0%)
- Dry mouth, treatment-related adverse event, subjects n (%) [4, 12]: 6 (60.0%)
- Headache, treatment-related adverse event, subjects n (%) [4, 12]: 1 (10.0%)
- Somnolence, treatment-related adverse event, subjects n (%) [4, 12]: 6 (60.0%)

SMILES: O=C(N[C@H]1CN2CCC1CC2)c1cc2cccc(Cl)c2s1 [EVP-6124]
- Saccadic inaccuracy ([1]; DPZ placebo + EVP-6124 0.3 mg): 0.6 (−0.2, 1.4) P = .1224%
- Saccadic reaction time ([1]; DPZ placebo + EVP-6124 0.3 mg): −4 (−13, 5) P = .4018 ms
- Saccadic inaccuracy ([1]; DPZ placebo + EVP-6124 1 mg): 0.0 (−0.8, 0.8) P = .9525%
- Saccadic reaction time ([1]; DPZ placebo + EVP-6124 1 mg): −2 (−12, 7) P = .5871 ms
- Saccadic inaccuracy ([1]; DPZ placebo + EVP-6124 2 mg): −0.1 (−0.9, 0.6) P = .7196%
- Saccadic reaction time ([1]; DPZ placebo + EVP-6124 2 mg): −3 (−12, 6) P = .4605 ms
- Saccadic inaccuracy ([1]; DPZ placebo + EVP-6124 4 mg): 0.3 (−0.5, 1.1) P = .4213%
- Saccadic reaction time ([1]; DPZ placebo + EVP-6124 4 mg): 3 (−6, 11) P = .5707 ms
- N-back, 0-back accuracy ([2]; DPZ placebo + EVP-6124 0.3 mg): 0.02 (−0.04, 0.08) P = .5073%
- N-back, 0-back reaction time ([2]; DPZ placebo + EVP-6124 0.3 mg): 8 (−12, 29) P = .4004 ms
- N-back, 1-back accuracy ([2]; DPZ placebo + EVP-6124 0.3 mg): 0.02 (−0.05, 0.10) P = .5558%
- N-back, 2-back accuracy ([2]; DPZ placebo + EVP-6124 0.3 mg): −0.02 (−0.11, 0.07) P = .6878%
- N-back, 2-back reaction time ([2]; DPZ placebo + EVP-6124 0.3 mg): −5 (−36, 25) P = .7210 ms
- N-back, 0-back accuracy ([2]; DPZ placebo + EVP-6124 1 mg): 0.04 (−0.03, 0.10) P = .2318%
- N-back, 0-back reaction time ([2]; DPZ placebo + EVP-6124 1 mg): −17 (−37, 4) P = .1085 ms
- N-back, 1-back accuracy ([2]; DPZ placebo + EVP-6124 1 mg): 0.04 (−0.04, 0.12) P = .3062%
- N-back, 2-back accuracy ([2]; DPZ placebo + EVP-6124 1 mg): 0.01 (−0.08, 0.10) P = .8796%
- N-back, 2-back reaction time ([2]; DPZ placebo + EVP-6124 1 mg): −3 (−33, 28) P = .8693 ms
- N-back, 0-back accuracy ([2]; DPZ placebo + EVP-6124 2 mg): 0.05 (−0.01, 0.11) P = .0818%
- N-back, 0-back reaction time ([2]; DPZ placebo + EVP-6124 2 mg): −5 (−25, 15) P = .6209 ms
- N-back, 2-back accuracy ([2]; DPZ placebo + EVP-6124 2 mg): 0.03 (−0.06, 0.13) P = .4557%
- N-back, 2-back reaction time ([2]; DPZ placebo + EVP-6124 2 mg): 1 (−29, 31) P = .9305 ms
- N-back, 0-back reaction time ([2]; DPZ placebo + EVP-6124 4 mg): −16 (−36, 4) P = .1151 ms
- N-back, 1-back accuracy ([2]; DPZ placebo + EVP-6124 4 mg): 0.05 (−0.03, 0.12) P = .2385%
- N-back, 2-back accuracy ([2]; DPZ placebo + EVP-6124 4 mg): −0.02 (−0.11, 0.07) P = .7181%
- N-back, 2-back reaction time ([2]; DPZ placebo + EVP-6124 4 mg): −8 (−39, 22) P = .5733 ms
- dose at which effects on the Digit Symbol Substitution Test were most prevalent (healthy volunteers [5]): 20 mg
- Adaptive tracking ([3]; DPZ placebo + EVP-6124 0.3 mg): −1.23 (−2.80, 0.34) P = .1200%
- Adaptive tracking ([3]; DPZ placebo + EVP-6124 1 mg): 0.03 (−1.56, 1.63) P = .9671%
- Adaptive tracking ([3]; DPZ placebo + EVP-6124 2 mg): −0.83 (−2.33, 0.67) P = .2691%
- Adaptive tracking ([3]; DPZ placebo + EVP-6124 4 mg): −0.26 (−1.76, 1.24) P = .7281%
- reason why phase III trials were halted in 2015 [6]: gastrointestinal adverse events
- Disturbance in attention, treatment-related adverse event, subjects n (%) [4, 13]: 2 (16.7%)
- Dizziness, treatment-related adverse event, subjects n (%) [4, 13]: 6 (50.0%)
- Dry mouth, treatment-related adverse event, subjects n (%) [4, 13]: 8 (66.7%)
- Gait disturbance, treatment-related adverse event, subjects n (%) [4, 13]: 1 (8.3%)
- Headache, treatment-related adverse event, subjects n (%) [4, 13]: 1 (8.3%)
- Somnolence, treatment-related adverse event, subjects n (%) [4, 13]: 6 (50.0%)
- Disturbance in attention, treatment-related adverse event, subjects n (%) [4, 14]: 2 (18.2%)
- Dizziness, treatment-related adverse event, subjects n (%) [4, 14]: 3 (27.3%)
- Gait disturbance, treatment-related adverse event, subjects n (%) [4, 14]: 1 (9.1%)
- Headache, treatment-related adverse event, subjects n (%) [4, 14]: 3 (27.3%)
- Somnolence, treatment-related adverse event, subjects n (%) [4, 14]: 5 (45.5%)
- Disturbance in attention, treatment-related adverse event, subjects n (%) [4, 15]: 1 (8.3%)
- Dizziness, treatment-related adverse event, subjects n (%) [4, 15]: 4 (33.3%)
- Dry mouth, treatment-related adverse event, subjects n (%) [4, 15]: 10 (83.3%)
- Gait disturbance, treatment-related adverse event, subjects n (%) [4, 15]: 1 (8.3%)
- Somnolence, treatment-related adverse event, subjects n (%) [4, 15]: 8 (66.7%)
- Disturbance in attention, treatment-related adverse event, subjects n (%) [4, 16]: 2 (16.7%)
- Dizziness, treatment-related adverse event, subjects n (%) [4, 16]: 5 (41.7%)
- Dry mouth, treatment-related adverse event, subjects n (%) [4, 16]: 10 (83.3%)
- Gait disturbance, treatment-related adverse event, subjects n (%) [4, 16]: 3 (25.0%)
- Headache, treatment-related adverse event, subjects n (%) [4, 16]: 1 (8.3%)
- Somnolence, treatment-related adverse event, subjects n (%) [4, 16]: 7 (58.3%)
- EVP-6124 pharmacokinetic parameters with or without donepezil (Plasma pharmacokinetics): similar

SMILES: CN1[C@@H]2C[C@@H](OC(=O)[C@H](CO)c3ccccc3)C[C@H]1[C@@H]1O[C@@H]12 [scopolamine]
- performance on saccadic eye movements ([1]; scopolamine alone 0.3 mg i.v.): worsened performance
- performance on N-back ([2]; scopolamine alone 0.3 mg i.v.): worsened performance
- performance on SRT [7]: worsened performance
- performance on adaptive tracking ([3]; scopolamine alone 0.3 mg i.v.): worsened performance
- performance on body sway [8]: worsened performance
- cognitive effect of scopolamine (healthy volunteers [9]): significant cognitive deficits
- EEG alpha frequency [10]: decrease
- EEG beta frequency [10]: did not affect
- EEG delta frequency [10]: increase
- EEG theta frequency [10]: did not affect
- reduction of adaptive tracking scores (healthy subjects): 42%

From PMC6446049 (Alzheimer's & Dementia : Translational Research & Clinical …, 2019)
